Values of other authors as cited in patent US20210069187A1, “Stable pharmaceutical composition of Selexipag” (RK Pharma Solutions LLC, priority 2019, published 2021).

Assays:
[1] = not given; remark: listed apart in the source

stability in the solid state: very stable | hygroscopicity (solid state): not hygroscopic | light sensitivity (solid state): not light sensitive | solubility in water [1]: practically insoluble
Structure (SMILES): CC(C)N(CCCCOCC(=O)NS(C)(=O)=O)c1cnc(-c2ccccc2)c(-c2ccccc2)n1 [Selexipag, 2-{4-[N-(5,6-diphenylpyrazin-2-yl)-N-isopropylamino]butyloxy}-N-(methylsulfonyl)acetamide]
